Assay [1] deals with Absorption of ^14 C-Chol. The assay can be described thus: In vivo cholesterol absorption study in normal rats, serum radioactivity after oral [4-^14 C] cholesterol. The note with it: suspended in olive oil, normal rat, 6 hr. The protocol:
The in vivo cholesterol absorption studies were conducted in normal rats by oral administration of the compound being tested suspended in olive oil followed by oral administration of [4-^14 C] cholesterol in propylene glycol, otherwise following the procedure of Cayen et al., J. Lipid Res. 20 162 (1979). The serum radioactivity was measured at six hours after dosing. The results of this study are reported in the following Table, where available, as percent decrease compared to control.

In assay [2] the target is T1, cholesterol esterase (cholesterol ester hydrolase; CEH) (Bos taurus, UniProt P30122).
T1 construct: purchased Sigma C-1892; host or cells: bovine pancreas
T1 sequence (P30122 19-597): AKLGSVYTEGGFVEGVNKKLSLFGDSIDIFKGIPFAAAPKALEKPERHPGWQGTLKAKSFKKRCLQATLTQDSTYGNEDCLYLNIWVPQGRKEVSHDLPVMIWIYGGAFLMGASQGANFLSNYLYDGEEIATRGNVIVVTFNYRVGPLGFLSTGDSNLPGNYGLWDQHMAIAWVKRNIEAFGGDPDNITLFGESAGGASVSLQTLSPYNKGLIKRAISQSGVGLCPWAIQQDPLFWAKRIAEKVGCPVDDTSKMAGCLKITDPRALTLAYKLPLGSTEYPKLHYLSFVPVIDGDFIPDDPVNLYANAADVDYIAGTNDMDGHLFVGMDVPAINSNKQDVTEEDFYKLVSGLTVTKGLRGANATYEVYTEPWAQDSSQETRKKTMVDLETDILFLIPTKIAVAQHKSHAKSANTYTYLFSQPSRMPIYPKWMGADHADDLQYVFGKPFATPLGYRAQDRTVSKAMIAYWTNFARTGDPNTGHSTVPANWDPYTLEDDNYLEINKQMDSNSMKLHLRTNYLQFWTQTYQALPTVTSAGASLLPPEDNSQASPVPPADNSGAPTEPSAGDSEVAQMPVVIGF
The assay can be described thus: Inhibition of cholesteryl ester formation by cholesterol esterase (CEH), in vitro. In kind it is biochemical, bovine. The protocol:
The ability of the compounds of this invention to inhibit the formation of cholesteryl esters and thereby interfere with and prevent assimilation of cholesterol into the lymphatic system and ultimately the blood stream was established by incubating the compounds at 37° C. with a mixture of cholesterol and oleic acid in the presence of buffered cholesterol esterase [([…]) Sigma No. C-1892, from bovine pancreas] and measuring the amount of ester formed, according to the procedure of Field, J. of Lipid Research, 25 389 (1984).

Where [3] appears, read: 37° C., cholesterol and oleic acid, buffered cholesterol esterase from bovine pancreas, read-out: IC50 Against CEH (concentration that inhibits one-half of the ester formation).

pIC50: −log10 of the molar value. Read-outs that look alike come from different tables or passages of the source.

With `O=C(NCC1CCCCC1)Oc1ccccc1-c1ccccc1` [Example 4, (Cyclohexylmethyl)carbamic acid[1,1'-biphenyl]-2-yl ester], the “Effects on Absorption of ^14 C-Chol., percent decrease compared to control” value (“Effects … percent decrease compared to control” for short) in assay [1] (100 mg/kg) is on record as 21%. Also, the pIC50 in assay [2] is 5.52. On to `CCCCCCCN(Cc1ccc(CC(C)(C)C)cc1)C(=O)Oc1ccccc1-c1ccccc1` [Example 2, [[4-(2,2-Dimethylpropyl)phenyl]methyl]heptylcarbamic acid[1,1'-biphenyl]-2-yl ester], for which the pIC50 in assay [2] is 4.00. As for `O=C(Oc1ccccc1-c1ccccc1)N1CCCCC1` [Example 7, 1-Piperidinecarboxylic acid[1,1'-biphenyl]-2-yl ester], the “Effects … percent decrease compared to control” value in assay [1] (250 mg/kg) was found to be 19%. Besides, the pIC50 in assay [2] (setting [3]) was 7.10. `O=C(Oc1ccccc1-c1ccccc1)N1CCOCC1` [Example 10, 4-Morpholinecarboxylic acid[1.1'-biphenyl]-2-yl ester] showed a pIC50 in assay [2] of 4.59. The same measure, in the same setting: next, `CCCCCCCCNC(=O)Oc1ccccc1-c1ccccc1` [Example 1, Octylcarbamic acid[1.1'-biphenyl]-2-yl ester]: 5.82. For the compound `CC1CCN(C(=O)Oc2ccccc2-c2ccccc2)CC1` [Example 8, 4-Methyl-1-piperidinecarboxylic acid[1,1'-biphenyl]-2-yl ester], the pIC50 in assay [2] (setting [3]) was 6.10.

In the case of `O=C(Oc1ccccc1-c1ccccc1)N1CCSCC1` [Example 11, 4-Thiomorpholinecarboxylic acid[1.1'-biphenyl]-2-yl ester], in assay [1] (100 mg/kg), the “Effects … percent decrease compared to control” value is on record as 21%. For the same compound, the pIC50 in assay [2] (setting [3]) was 5.92. On to `CC1(C)CCCN(C(=O)Oc2ccccc2-c2ccccc2)C1` [Example 6, 3,3-Dimethyl-1-piperidinecarboxylic acid[1,1'-biphenyl]-2-yl ester], for which the pIC50 in assay [2] (setting [3]) is 4.42. Same read-out and setting: to `O=C(Oc1ccccc1-c1ccccc1)N1CCN(c2ccccc2)CC1` [Example 13, 4-Phenyl-1-piperazinecarboxylic acid[1,1'-biphenyl]-2-yl ester] belongs 4.28. For the compound `O=C(NCCCCc1ccccc1)Oc1ccccc1-c1ccccc1` [Example 5, (4-Phenylbutyl)carbamic acid[1,1'-biphenyl]-2-yl ester], in assay [1] (250 mg/kg), the “Effects … percent decrease compared to control” value is given as 46%. Moreover, the pIC50 in assay [2] was 6.60.

`O=C(NC1CCCCC1)Oc1ccccc1-c1ccccc1` [Example 3, Cyclohexylcarbamic acid[1,1'-biphenyl]-2-yl ester]: in assay [1] (100 mg/kg), the “Effects … percent decrease compared to control” value is listed as 21%. In addition, the pIC50 in assay [2] was 5.30. In turn, `CN1CCN(C(=O)Oc2ccccc2-c2ccccc2)CC1` [Example 12, 4-Methyl-1-piperazinecarboxylic acid[1,1'-biphenyl]-2-yl ester] gave a pIC50 in assay [2] of 4.60. For `O=C(Oc1ccccc1-c1ccccc1)N1CCC(c2ccccc2)CC1` [Example 9, 4-Phenyl-1-piperidinecarboxylic acid[1.1'-biphenyl]-2-yl ester], in assay [1] (100 mg/kg), the “Effects … percent decrease compared to control” value is on record as 11%. Further, the pIC50 in assay [2] (setting [3]) is 5.72.

The values above are taken from patent US5190940A, “Cholesterol ester hydrolase inhibitors” (American Home Products Corporation, priority 1991, dated 1993).
